Assay type in all cases: functional
Experiment [1] can be described thus: Cytotoxicity against human Caki1 cells assessed as growth inhibition at 10 uM after 48 hrs by SRB assay. The conditions noted are these: CAKI-1, 48 h, read-out: GI.
Experiment [2] can be described thus: Cytotoxicity against human MOLT4 cells assessed as growth inhibition at 10 uM after 48 hrs by SRB assay. The conditions noted are these: MOLT-4, 48 h, read-out: GI.
A short description of experiment [3]: Cytotoxicity against human RPMI8226 cells assessed as growth inhibition at 10 uM after 48 hrs by SRB assay. The following applies: RPMI-8226, 48 h, read-out: GI.
A short description of experiment [4]: Cytotoxicity against human HOP92 cells assessed as growth inhibition at 10 uM after 48 hrs by SRB assay. The conditions noted are these: HOP-92, 48 h, read-out: GI.
The next experiment relates to A498. In words: Cytotoxicity against human A498 cells assessed as growth inhibition at 10 uM after 48 hrs by SRB assay. The following applies: A498, 48 h, read-out: GI.
Another experiment has as its system K562. The experiment is described as follows: Cytotoxicity against human K562 cells assessed as growth inhibition at 10 uM after 48 hrs by SRB assay. The following applies: K562, 48 h, read-out: GI.
Experiment [5] is described as follows: Cytotoxicity against human LOXIMVI cells assessed as growth inhibition at 10 uM after 48 hrs by SRB assay. The conditions noted are these: LOX IMVI, read-out: GI.
Experiment [6] in a line: Cytotoxicity against human SNB75 cells assessed as growth inhibition at 10 uM after 48 hrs by SRB assay. The following applies: SNB-75, 48 h, read-out: GI.
The test system of another experiment is NCI-H522. In words: Cytotoxicity against human NCI-H522 cells assessed as growth inhibition at 10 uM after 48 hrs by SRB assay. The conditions noted are these: NCI-H522, 48 h, read-out: GI.
Experiment [7] is described as follows: Cytotoxicity against human Hs 578T cells assessed as growth inhibition at 10 uM after 48 hrs by SRB assay. The conditions noted are these: read-out: GI.
In a further experiment the test system is MDA-MB-231. The experiment is described as follows: Cytotoxicity against human MDA-MB-231 cells assessed as growth inhibition at 10 uM after 48 hrs by SRB assay. The following applies: MDA-MB-231, 48 h, read-out: GI.
For the next experiment, the system named is EKVX. In words: Cytotoxicity against human EKVX cells assessed as growth inhibition at 10 uM after 48 hrs by SRB assay. The conditions noted are these: read-out: GI.
Experiment [8] in a line: Cytotoxicity against human SF268 cells assessed as growth inhibition at 10 uM after 48 hrs by SRB assay. The conditions noted are these: SF-268, 48 h, read-out: GI.
For the next experiment, the system named is SK-MEL-5. The experiment is described as follows: Cytotoxicity against human SK-MEL-5 cells assessed as growth inhibition at 10 uM after 48 hrs by SRB assay. The following applies: SK-MEL-5, 48 h, read-out: GI.
Experiment [9] is described as follows: Cytotoxicity against human UO31 cells assessed as growth inhibition at 10 uM after 48 hrs by SRB assay. The following applies: UO-31, 48 h, read-out: GI.
A further experiment concerns T47D. The experiment is described as follows: Cytotoxicity against human T47D cells assessed as growth inhibition at 10 uM after 48 hrs by SRB assay. The conditions noted are these: read-out: GI.
Experiment [10] in a line: Cytotoxicity against human UACC62 cells assessed as growth inhibition at 10 uM after 48 hrs by SRB assay. The following applies: UACC-62, 48 h, read-out: GI.
The next experiment relates to NCI-H23. The experiment is described as follows: Cytotoxicity against human NCI-H23 cells assessed as growth inhibition at 10 uM after 48 hrs by SRB assay. The following applies: NCI-H23, 48 h, read-out: GI.
A short description of experiment [11]: Cytotoxicity against human BT549 cells assessed as growth inhibition at 10 uM after 48 hrs by SRB assay. The following applies: BT-549, 48 h, read-out: GI.
The subject of another experiment is A549. In words: Cytotoxicity against human A549 cells assessed as growth inhibition at 10 uM after 48 hrs by SRB assay. The conditions noted are these: A549, 48 h, read-out: GI.
Experiment [12] is described as follows: Cytotoxicity against human HOP62 cells assessed as growth inhibition at 10 uM after 48 hrs by SRB assay. The conditions noted are these: HOP-62, 48 h, read-out: GI.
The nature of experiment [13]: Cytotoxicity against human PC3 cells assessed as growth inhibition at 10 uM after 48 hrs by SRB assay. The conditions noted are these: PC-3, 48 h, read-out: GI.
A short description of experiment [14]: Cytotoxicity against human NCI-ADR-RES cells assessed as growth inhibition at 10 uM after 48 hrs by SRB assay. The following applies: read-out: GI.
Another experiment relates to Malme-3M. In words: Cytotoxicity against human MALME-3M cells assessed as growth inhibition at 10 uM after 48 hrs by SRB assay. The following applies: read-out: GI.
The next experiment deals with CCRF-CEM. In words: Cytotoxicity against human CCRF-CEM cells assessed as growth inhibition at 10 uM after 48 hrs by SRB assay. The following applies: read-out: GI.
Experiment [15] in a line: Cytotoxicity against human SF295 cells assessed as growth inhibition at 10 uM after 48 hrs by SRB assay. The following applies: SF-295, 48 h, read-out: GI.
A short description of experiment [16]: Cytotoxicity against human OVCAR4 cells assessed as growth inhibition at 10 uM after 48 hrs by SRB assay. The conditions noted are these: OVCAR-4, 48 h, read-out: GI.
The test system of the next experiment is U-251. In words: Cytotoxicity against human U251 cells assessed as growth inhibition at 10 uM after 48 hrs by SRB assay. The conditions noted are these: U-251, 48 h, read-out: GI.
For the next experiment, the system named is SR. The experiment is described as follows: Cytotoxicity against human SR cells assessed as growth inhibition at 10 uM after 48 hrs by SRB assay. The following applies: read-out: GI.
The next experiment concerns MCF7. In words: Cytotoxicity against human MCF7 cells assessed as growth inhibition at 10 uM after 48 hrs by SRB assay. The conditions noted are these: MCF7, 48 h, read-out: GI.
The subject of another experiment is SN12C. The experiment is described as follows: Cytotoxicity against human SN12C cells assessed as growth inhibition at 10 uM after 48 hrs by SRB assay. The conditions noted are these: read-out: GI.
Another experiment has as its system ACHN. In words: Cytotoxicity against human ACHN cells assessed as growth inhibition at 10 uM after 48 hrs by SRB assay. The following applies: read-out: GI.
A further experiment has as its system NCI-H226. The experiment is described as follows: Cytotoxicity against human NCI-H226 cells assessed as growth inhibition at 10 uM after 48 hrs by SRB assay. The following applies: NCI-H226, 48 h, read-out: GI.
A short description of experiment [17]: Cytotoxicity against human RXF393 cells assessed as growth inhibition at 10 uM after 48 hrs by SRB assay. The conditions noted are these: RXF 393, 48 h, read-out: GI.

For eight compounds, inhibition of growth results are on record in ChEMBL document CHEMBL3784933, “Synthesis and antitumor evaluation of trimethoxyanilides based on 4(3H)-quinazolinone scaffolds” (2016).

Take `COc1cc(NC(=O)CSc2nc3ccccc3c(=O)n2-c2ccc(F)cc2)cc(OC)c1OC`: the inhibition of growth at 10 µM was 12% in [1]; 18% in experiment [2]; 14% in experiment [3]; 43% in experiment [4]; 72% in the experiment on A498; 14% with K562. Besides, the inhibition of growth at 10 µM turned out to be 10% in experiment [5]; 10% in [6]; 19% with NCI-H522; 10% in experiment [7]; 24% with MDA-MB-231; 13% in the experiment on EKVX. Also, the inhibition of growth at 10 µM was 10% in experiment [8]; 11% with SK-MEL-5; 42% in experiment [9]; 23% with T47D; 19% in experiment [10]; 10% with NCI-H23.
Regarding `COc1cc(NC(=O)CSc2nc3ccc(Cl)cc3c(=O)n2-c2ccccc2)cc(OC)c1OC`, the inhibition of growth at 10 µM in experiment [1] came out at 17%; in experiment [11] it was 22%; in the experiment with A549, 12%; in experiment [12], 15%; in the experiment on A498, 54%; in experiment [5] it was 10%. Moreover, the inhibition of growth at 10 µM in [6] is 29%; in the experiment on NCI-H522 it was 16%; in experiment [7], 19%; in the experiment on MDA-MB-231, 17%; in the experiment with EKVX it was 24%; in [8] it was 10%. Further, the inhibition of growth at 10 µM turned out to be 17% in the experiment on SK-MEL-5; 20% in experiment [13]; 10% in experiment [14]; 50% in experiment [9]; 12% in the experiment on Malme-3M; 15% with T47D. Besides, the inhibition of growth at 10 µM with CCRF-CEM is 30%; in [15] it was 13%; in experiment [10], 25%; in experiment [16], 15%.
Consider `COc1cc(NC(=O)CCSc2nc3ccccc3c(=O)n2-c2ccccc2)cc(OC)c1OC`, for which the inhibition of growth at 10 µM in experiment [1] was determined as 22%; in experiment [2], 15%; in the experiment with A549, 15%; in [3] it was 36%; in the experiment on U-251, 10%; in the experiment with A498, 46%. Moreover, the inhibition of growth at 10 µM in the experiment on K562 was 31%; in experiment [5], 10%; in the experiment with NCI-H522, 49%; in the experiment on MDA-MB-231 it was 41%; in experiment [13] it was 39%; in [9], 44%. The inhibition of growth at 10 µM was 23% in the experiment with T47D; 17% in the experiment on SR; 19% with CCRF-CEM; 13% in [15]; 17% in experiment [10]; 16% in the experiment on MCF7. The inhibition of growth at 10 µM was 18% with SN12C, 24% in [16] and 18% in the experiment on ACHN.
As for `COc1cc2nc(SCCC(=O)Nc3cc(OC)c(OC)c(OC)c3)n(-c3ccc(F)cc3)c(=O)c2cc1OC`, the inhibition of growth at 10 µM worked out at 11% in experiment [12]; 12% in the experiment on U-251; 13% in experiment [4]; 22% in the experiment on A498; 11% in the experiment on K562.
For the compound `COc1cc2nc(SCCC(=O)Nc3cc(OC)c(OC)c(OC)c3)n(-c3ccccc3)c(=O)c2cc1OC`, the inhibition of growth at 10 µM is 12% in [1]; 14% in the experiment with A549; 25% in [3]; 39% in experiment [6]; 15% in the experiment on NCI-H522; 14% in the experiment with MDA-MB-231. In addition, the inhibition of growth at 10 µM in experiment [13] is 18%; in experiment [9] it was 25%; in the experiment with T47D, 14%; in the experiment on SR, 13%.
For the compound `COc1cc(NC(=O)CSc2nc3ccccc3c(=O)n2-c2ccccc2)cc(OC)c1OC`, the inhibition of growth at 10 µM was found to be 20% in experiment [1]; 12% in [12]; 54% in the experiment on A498; 27% in experiment [6]; 11% with NCI-H522; 14% in experiment [7]. Also, the inhibition of growth at 10 µM with MDA-MB-231 is 23%; with EKVX it was 24%; in the experiment on SK-MEL-5 it was 16%; with NCI-H226, 23%; in experiment [13], 15%; in [9], 48%. In addition, the inhibition of growth at 10 µM in the experiment with Malme-3M was found to be 11%; in the experiment with T47D, 18%; with CCRF-CEM, 22%; in experiment [10] it was 19%; in [16] it was 12%; in [17] it was 12%. Besides, in the experiment with ACHN, the inhibition of growth at 10 µM is 11%.
Consider `COc1cc2nc(SCC(=O)Nc3cc(OC)c(OC)c(OC)c3)n(-c3ccc(F)cc3)c(=O)c2cc1OC`, for which the inhibition of growth at 10 µM amounted to 14% in experiment [5]; 15% in the experiment with NCI-H522; 38% in experiment [9]; 20% with T47D; 15% with CCRF-CEM; 18% in experiment [10].
For the compound `COc1cc(NC(=O)CCSc2nc3ccc(Cl)cc3c(=O)n2-c2ccccc2)cc(OC)c1OC`, the inhibition of growth at 10 µM with A498 is 22%; in [6], 21%; in the experiment on MDA-MB-231, 10%; in the experiment on SR, 18%; in experiment [16], 15%.
